Columns and labels:
A3 AdoRs = target: T1, A3 AdoRs (Homo sapiens, UniProt P0DMS8); assay: Radioligand binding competition with 125I-AB-MECA on membranes of transfected cells; conditions: competition with 0.2 nM 125I-AB-MECA, membranes of HEK-A3 or CHO-A3, TEM buffer, 90 minutes
T1 construct: expressed in transfected cells; host or cells: HEK-293 or CHO cells (HEK-A3 or CHO-A3), membranes
T1 sequence (P0DMS8 1-318): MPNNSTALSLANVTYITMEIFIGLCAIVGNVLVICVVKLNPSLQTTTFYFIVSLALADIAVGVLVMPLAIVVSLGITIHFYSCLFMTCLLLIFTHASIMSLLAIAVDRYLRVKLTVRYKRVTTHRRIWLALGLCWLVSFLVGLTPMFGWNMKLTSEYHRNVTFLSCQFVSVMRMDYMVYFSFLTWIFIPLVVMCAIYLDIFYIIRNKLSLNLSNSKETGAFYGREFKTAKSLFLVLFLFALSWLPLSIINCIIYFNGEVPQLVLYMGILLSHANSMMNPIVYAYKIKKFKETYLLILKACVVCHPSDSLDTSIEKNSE
Description: Stable transfection of HEK-293 or CHO cells. The cDNAs for human A1, A2A, A2B or A3 AdoRs were prepared by RT-PCR from total RNA of human cells or tissues and sequenced on both strands. The expression vector containing each of these cDNAs and a second vector containing a neomycin or puromycin-resistance gene were introduced to HEK-293 or CHO cells by Lipofectin-Plus (Life Technology). Colonies were selected by growing transfected cells in the presence of neomycin or puromycin. Stably transfected cells were maintained in Dulbecco's modified Eagle's medium (DMEM) or F-12 medium with 10% fetal bovine serum, 100 μg/ml penicillin, 100 μg/ml streptomycin and appropriate concentrations of neomycin or puromycin. These stably transfected cells were referred to as HEK-“AdoR” or CHO-“AdoR” depending on the receptors that they express. For example, cells that were transfected with A3 AdoRs were referred to as HEK-A3 or CHO-A3.
Membrane preparation. Monolayers of transfected cells were washed with phosphate buffered saline (PBS) and harvested in a buffer containing 10 mM HEPES (pH 7.4), 10 mM EDTA and protease inhibitors. The cells were homogenized in polytron for 1 minute at setting 4 and centrifuged at 29000 g for 15 minutes at 4° C. The cell pellets were washed with a buffer containing 10 mM HEPES (pH7.4), 1 mM EDTA and protease inhibitors, and were resuspended in the same buffer supplemented with 10% sucrose. Frozen aliquots were kept at −80° C.
Radioligand binding. The affinities of compounds for A1, A2A, A2B or A3 AdoRs were determined in competition studies using radioligands such as ^3H—CPX (A1 antagonist), or ^3H-CCPA (A1 agonist), ^3H-ZM214385 (A2A antagonist) or ^3H-CGS21680 (A2A agonist), ^3H-ZM214385 (A2B antagonist) or ^125I-AB-MECA (A3 agonist) and membranes of corresponding transfected cells. For example, to determine the affinity for A3 AdoRs, the competition assays were started by mixing 0.2 nM ^125I-AB-MECA with various concentrations of test compounds and 25 ug membrane proteins of HEK-A3 or CHO-A3 in TEM buffer (50 mM Tris, 1 mM EDTA and 10 mM MgCl2) supplemented with 1 U/ml adenosine deaminase. The assays were incubated for 90 minutes, stopped by filtration onto GF/B filter plates using Packard Harvester and washed four times with ice-cold TM buffer (10 mM Tris, 1 mM MgCl2, pH 7.4). The amounts of radioligands that bound to the GF/B filter plates were determined by scintillation counting. Nonspecific binding was determined in the presence of 10 μM R—PIA or 1 μM IB-MECA. Bmax and KD values were calculated using GraphPad software.

Ki (A3 AdoRs) | melting point | SMILES
0.422 nM | – | CONc1nc(C#Cc2ccc(F)cc2)nc2c1ncn2[C@@H]1O[C@H](CO)[C@@H](O)[C@H]1O [(4S,2R,3R,5R)-2-{2-[2-(4-fluorophenyl)ethynyl}-6-(methoxyamino)purin-9-yl}-5-(hydroxymethyl)oxolane-3,4-diol]
0.681 nM | – | CCCCC#Cc1nc(NOC)c2ncn([C@@H]3O[C@H](CO)[C@@H](O)[C@H]3O)c2n1 [(4S,2R,3R,5R)-2-{2-[2-hex-1-ynyl-6-methoxyamino)purin-9-yl}-5-(hydroxymethyl)oxolane-3,4-diol]
0.331 nM | – | CONc1nc(C#Cc2ccc(C)cc2)nc2c1ncn2[C@@H]1O[C@H](CO)[C@@H](O)[C@H]1O [(4S,2R,3R,5R)-5-(hydroxymethyl)-2-[6-(methoxyamino)-2-[(2-(4-methylphenyl)ethynyl]-purin-9-yl]oxolane-3,4-diol]
0.388 nM | – | CCCCCc1ccc(C#Cc2nc(NOC)c3ncn([C@@H]4O[C@H](CO)[C@@H](O)[C@H]4O)c3n2)cc1 [(4S,2R,3R,5R)-5-hydroxymethyl)-2-{6-(methoxyamino-2-[2-(4-pentylphenylethynyl)]purin-9-yl}oxolane-3,4-diol]
– | 175 to 177 °C | CONc1nc(C#Cc2ccccc2)nc2c1ncn2[C@@H]1O[C@H](CO)[C@@H](O)[C@H]1O [Example 6A, (4S,2R,3R,5R)-5-(hydroxymethyl)-2-[6-(methoxyamino)-2-(2-phenylethynyl)purin-9-yl]oxolane-3,4-diol]

Reference: patent US6914053B2, “Adenosine A3 receptor agonists” (CV Therapeutics, Inc., priority 2002, dated 2005)
